Assay results from US20230346773A1, “USE OF PCSK9 INHIBITOR IN PREPARATION OF PRODUCT FOR TREATING MULTIPLE DISEASES” (priority 2020, published 2023).
Marks after values point to notes of the source that are not given here.

Tests used:
rabbit ear acne model = assay: Rabbit ear acne model induced by 2% coal tar; assay type: in vivo, New Zealand rabbits; conditions: n = 10; for Skin thickness: rabbit ear epidermis; for Hair follicle area / Sebaceous gland diameter: rabbit ear; for Histological grading of acne: number of animals graded − / Histological grading of acne: number of animals graded 1+ / Histological grading of acne: number of animals graded 2+ / Histological grading of acne: number of animals graded 3+: right ear; for Histological grading of acne: number of animals graded −: grade 0: only loose keratinized cells in the infundibulum, without acne; for Histological grading of acne: number of animals graded 1+: grade 1: small amount of dense keratinized material, infundibulum not expanded; for Histological grading of acne: number of animals graded 2+: grade 2: moderately dense keratinized material extending to sebaceous glands, infundibulum expands; for Histological grading of acne: number of animals graded 3+: grade 3: extensive keratinized material, severe expansion of hair follicles
Description: The inner side of the right ear of the rabbits was taken as the observation area, the left ear of all rabbits was used as the self-negative control, and 95% alcohol was applied. The inner side of the right ear of the model group and the treatment group were smeared with 2% coal tar (Alfa Aesar China Company, 2% coal tar solution made with 95% alcohol), and evenly applied to the opening of the ear canal on the inner side of the rabbit ear with a sterile cotton swab in a range of about 2 cm×2 cm, once a day, 0.5 mL each time. Then the previous application was wiped with warm water. […] 18 hours after the last coating, the samples were sacrificed, fixed in 10% formaldehyde, embedded in paraffin, and stained with HE for histopathological analysis.
Histological grading standard of the acne model: […], according to histology. Grade 0 means that there are only loose keratinized cells in the infundibulum, without acne forming the “1”; grade 1: the skin on the surface of the rabbit ear is red, or a small amount of dense keratinized material is seen in the infundibulum of the hair follicle, and the infundibulum is not expanded “+”; grade 2: moderately dense keratinized material is seen in the infundibulum of the hair follicle, and it extends to the sebaceous glands, with the proliferation of sebaceous gland ducts, the infundibulum expands by “2+”; grade 3: extensive keratinized material in the hair follicle. Tight keratin embolism in hair follicles causes severe expansion of hair follicles, obvious hyperplasia of sebaceous duct epithelium, skin bulges and scars, and some sebaceous glands degenerate into “3+”.
Histopathological changes were observed under a microscope, and the thickness of 5 different epidermises on a slice was measured with the Biomias99 image analysis system, and the average value was calculated; the area of two hair follicles with the same position and the most complete structure and the diameter of four sebaceous glands were detected, and the average value of each was calculated, and then the data of the left and right external auditory canals of each group were subtracted to obtain the difference in the thickness of the epidermis, the difference in hair follicle area and the diameter of the sebaceous gland in the left and right ears of each rabbit.

[1] = test system: hair follicles / hair growth in depilated C57BL/6 mice; assay: Hair growth in C57BL/6 mice after rosin/paraffin depilation; assay type: in vivo; conditions: for Time from hair growth to the same length as the hair in the non-experimental area / Time to grow new hair / Time to match the length of hair in the non-experimental area: back hair removal area of mice; for Black skin duration / Skin black-turning time / Skin grayish-black-turning time: hair removal area on the back of mice; for Skin black-turning time / Skin grayish-black-turning time: after hair removal
Description: SPF grade C57BL/6 mice were selected and numbered according to their weight. They were randomly divided into compound group 1 (skin applied with 2% R-IMPP solution), compound group 2 (skin applied with 2% PF 06446846 solution), and compound group 3 (skin applied with 2% SBC-115076 solution), compound group 4 (skin applied with 2% SBC-110736 solution), monoclonal antibody group 1 (PCSK9subcutaneous injection monoclonal antibody ab81041, 5 mg/kg·d), monoclonal antibody group 2 (Subcutaneous injection of Evolocumab, 5 mg/kg·d), monoclonal antibody group 3 (subcutaneous injection of Alirocumab, 5 mg/kg·d), PCSK9 RNA interference group-1 (skin applied with 2% PCSK9 small interfering RNA-1 solution), PCSK9 RNA interference Group-2 (skin applied with 2% PCSK9 small interfering RNA-2 solution), PCSK9 RNA interference group-3 (skin applied with 2% PCSK9 small interfering RNA-3 solution), polypeptide group (subcutaneous injection of Abcam company ab32727, 3 mg/kg·d), positive control group (skin applied with 2% minoxidil solution), negative control group (skin applied with 60% ethanol), and model control group (skin applied with 60% ethanol), 10 mice in each group, half male and half female. After the mice were anesthetized with ether, they were coated on the back with a mixture of rosin and paraffin (1:1) after hot melting, and then peeled off after it solidified and hardened. The back of the mouse was cleaned to be hairless and without injuries. The depilation area was about 3 cm×4 cm. From the 2nd day after depilation, the corresponding drugs were applied to the hair removal area, twice a day, 0.5 mL per animal each time, and subcutaneously injected once a week.
From the second day after application, observe the daily color change of the skin on the back of the mice to determine the growth state of the hair follicles and visually observe the hair growth in the depilation area, and score the new hair growth in the depilation area once a day. Five mice in each group were reserved for 40 days of visual observation, and the growth of back hair was recorded.
On the 17th day, five mice in each group were sacrificed by cervical dislocation. The samples were taken from the same part of the back parallel to the spine, fixed with 10% formaldehyde, dehydrated, embedded in paraffin, sectioned, stained with HE, and sealed with neutral gum. Then the histology of hair follicles was observed under light microscope, and morphological staging of hair follicles was performed. According to the international hair cycle scoring method, the hair follicles were scored as follows: 100 points for growth stage VI, 200 points for early regression, 300 points for middle regression, and 400 points for late regression. 50 hair follicles were randomly selected from each mouse, the cycle of the hair follicles in each group was determined, and the average hair cycle score and the percentage of hair follicles in the growth phase VI, early regression, middle regression, and late regression were calculated.

Molecule | Skin thickness (rabbit ear acne model) [mm] | Hair follicle area (rabbit ear acne model) | Sebaceous gland diameter (rabbit ear acne model) [mm] | Histological grading of acne: number of animals graded − (rabbit ear acne model) | Histological grading of acne: number of animals graded 1+ (rabbit ear acne model) | Histological grading of acne: number of animals graded 2+ (rabbit ear acne model) | Histological grading of acne: number of animals graded 3+ (rabbit ear acne model) | Time from hair growth to the same length as the hair in the non-experimental area [1] | Time to grow new hair [1] | Time to match the length of hair in the non-experimental area [1] | Black skin duration [1] | Skin black-turning time [1] | Skin grayish-black-turning time [1]
CC(=O)Nc1ccc(C(=O)N2CCN(c3ccc(C)cc3)CC2c2ccccc2)cc1 (stereo not shown) [Compound group 4, SBC-110736] | 0.2276 ± 0.0193 | 0.2853 ± 0.0879* mm^2 | 0.0561 ± 0.0362 | 5 | 2 | 3 | 0 | 11.87* days | 6.98* days | 18.46* days | 12.32* days | 5.78* days | 18.46* days
Cc1cc(C(=O)C2=C(O)C(=O)N(CCCN3CCOCC3)C2c2ccncc2)ccc1OCc1ccccc1 (stereo not shown) [Compound group 3, SBC-115076] | 0.2245 ± 0.0185 | 0.2836 ± 0.0851* mm^2 | 0.0542 ± 0.0346 | 5 | 3 | 2 | 0 | 11.52* days | 6.95* days | 19.35* days | 11.65* days | 5.63* days | 18.12* days
Alirocumab [Monoclonal antibody group 3] | 0.1547 ± 0.0149 | 0.1526 ± 0.0723* mm^2 | 0.0435 ± 0.0285 | 9 | 1 | 0 | 0 | 10.13* days | 6.06* days | 16.75* days | 13.43* days | 5.35* days | 16.65* days
O=C(c1ccc(-n2nnc3cccnc32)cc1)N(c1ncccc1Cl)[C@@H]1CCCNC1 [Compound group 2, PF 06446846] | 0.1968 ± 0.0121 | 0.2353 ± 0.0812* mm^2 | 0.0467 ± 0.0313 | 7 | 2 | 1 | 0 | 10.46* days | 6.33* days | 17.69* days | 10.86* days | 5.45* days | 17.32* days
ALN-PCS [RNA interference group 3] | 0.1987 ± 0.0185 | 0.1921 ± 0.0933* mm^2 | 0.0615 ± 0.0476 | 5 | 4 | 1 | 0 | 14.26* days | 6.96* days | 21.38* days | 12.16* days | 6.08* days | 18.52* days
Inclisran [RNA interference group 2] | 0.1856 ± 0.0179 | 0.1836 ± 0.0856* mm^2 | 0.0561 ± 0.0423 | 6 | 3 | 1 | 0 | 14.12* days | 6.92* days | 20.16* days | 11.87* days | 5.66* days | 18.23* days
Evolocumab (antibody, chains of the INN, looked up, V domains shown, PCSK9 monoclonal antibody jointly developed by Amgen and Astellas, trade name Repatha) VH: EVQLVQSGAEVKKPGASVKVSCKASGYTLTSYGISWVRQAPGQGLEWMGWVSFYNGNTNYAQKLQGRGTMTTDPSTSTAYMELRSLRSDDTAVYYCARGYGMDVWGQGTTVTVSS VL: ESALTQPASVSGSPGQSITISCTGTSSDVGGYNSVSWYQQHPGKAPKLMIYEVSNRPSGVSNRFSGSKSGNTASLTISGLQAEDEADYYCNSYTSTSMVFGGGTKLTVL | 0.1532 ± 0.0156 | 0.1533 ± 0.0562* mm^2 | 0.0432 ± 0.0267 | 9 | 1 | 0 | 0 | 9.89* days | 5.78* days | 16.68* days | 10.21* days | 5.23* days | 16.83* days
